Data reported in patent EP4725956A1, “MODIFIED POLYPEPTIDE AND USE THEREOF IN FIELD OF ANALGESIA” (Nanjing Anji Biotechnology Co., Ltd., priority 2023, dated 2024).
Positions of bridges follow the written chain, without caps; N, C: chain ends. Non-standard residues stand in square brackets, D forms with d. Residues, ends and D or L forms follow the SMILES beside them. Bip = N[C@@H](Cc1ccc(-c2ccccc2)cc1)C(=O)O; Hyp = O=C(O)[C@@H]1C[C@@H](O)CN1; Nle = CCCC[C@H](N)C(=O)O; Orn = NCCC[C@H](N)C(=O)O; Aib = CC(C)(N)C(=O)O

Key:
[1] = In vitro plasma stability and predicted half-life (HPLC main peak area, Example 3); format: in vitro ADME; settings: human plasma (EDTA anticoagulant), 37°C, sampled up to 24 h, predicted half-life calculated with Winolin
In short: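 Peptides (10 mg in 5 mL human EDTA plasma) incubated at 37°C, sampled from 0 min up to 24 h. Samples quenched with acetonitrile, centrifuged and analysed by HPLC for main peak area; in vitro half-life predicted from peak-area decline by pharmacokinetic fitting.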

[2] = tested on: mouse oxaliplatin-induced acute chemotherapy pain model; assay: Mouse oxaliplatin chemotherapy pain model, different doses (Example 7); format: in vivo
Description: Oxaliplatin was dissolved in 5% glucose solution to a concentration of 1 mg/mL. For model induction, each male C57 mouse (Hangzhou Ziyuan Experimental Animal Technology Co., Ltd.) received a single intraperitoneal injection of oxaliplatin at 10 mg/kg. Mice in the negative control or blank control group received 5% glucose solution. Approximately one week after model induction, mechanical pain thresholds of the mice were measured three times per mouse, and the average value was calculated. Mice were then randomly assigned to groups based on their pain thresholds. Drug administration was carried out according to the dosing schedule shown in Table 6, with a single dose per mouse. Mechanical pain thresholds were measured at 0.5, 1, 2, 4, 6, and 8 h post-dose. […] Table 6 Dosing Scheme for Oxaliplatin Chemotherapy Pain Model

[3] = tested on: rat CCI model; assay: Rat CCI (chronic constriction injury) model (Example 9); format: in vivo
Excerpt: Neuropathic pain has many types, and animal models can simulate clinical neuropathic pain. Common SD rat sciatic nerve neuropathic pain models include CCI (Chronic Constriction Injury), SNI (Spared Nerve Injury), SNL (Spinal Nerve Ligation), and CCD (using stainless steel wire through the intervertebral foramen to fix and compress the dorsal root ganglion). Among them, the CCI model is widely used to study neuropathic pain, providing a basis for further research on mechanisms and strategies for nerve injury repair (Wen Xiaojun, Medical Information, Jan. 2018, Vol. 31, No.1). In this example, the CCI model was employed.
Except for the control group, the remaining SD rats were anesthetized via intraperitoneal injection of 10% chloral hydrate saline solution at a dose of 0.3 mL per 100 g body weight, and surgical modeling was performed. The right hind limb skin was carefully incised, muscles were separated, and the sciatic nerve was ligated three times using 4-0 surgical silk, spaced 1 mm apart. Muscles and skin were sutured, and antibiotics were applied to the wound to prevent infection. […] Approximately 10 days post-surgery, plantar pain thresholds were measured three times for each rat, and the average value was calculated. Rats were randomly assigned to groups based on pain thresholds. Drug administration was performed according to Table 8, and plantar pain thresholds were measured at 2 h, 4 h, 6 h, and 8 h after administration.

## CCCC[C@H](NC(=O)[C@@H](NC(=O)[C@H]1CSSC[C@H](NC(=O)[C@H](CO)NC(=O)CN)C(=O)N[C@@H](CO)C(=O)N[C@H]([C@H](C)O)C(=O)N2C[C@H](O)C[C@H]2C(=O)N2C[C@H](O)C[C@H]2C(=O)NC(C)(C)C(=O)N1)C(C)C)C(=O)N[C@@H](Cc1ccc(-c2ccccc2)cc1)C(=O)N[C@@H](CCCN)C(N)=O [AJ003-36, GSCS-(D-Thr)-Hyp-Hyp-Aib-(D-Cys)-V-Nle-Bip-Orn-NH2 (3,9 disulfide bond)] (H-GSCS[dT][Hyp][Hyp][Aib][dC]V[Nle][Bip][Orn]-NH2; disulfide 3-9)
[1]
  half-life at 2 mg/mL: 65.3 h
[2]; single dose, 0.5, 1, 2 and 4 h post-dose, 1 mg/kg s.c. (low dose)
  analgesic activity compared with the model group (mechanical pain threshold): significant analgesic activity
[2]; single dose, 0.5, 1, 2 and 4 h post-dose, 2 mg/kg s.c. (AJ003; AJ003-36 medium dose)
  analgesic activity compared with the model group (mechanical pain threshold): significant analgesic activity
[2]; single dose, 0.5, 1, 2 and 4 h post-dose, 3 mg/kg s.c. (high dose)
  analgesic activity compared with the model group (mechanical pain threshold): significant analgesic activity
[2]; single dose, 6 h post-dose, 1 mg/kg s.c. (low dose)
  analgesic activity compared with the model group (mechanical pain threshold): significant analgesic activity
[2]; single dose, 6 h post-dose, 2 mg/kg s.c. (AJ003; AJ003-36 medium dose)
  analgesic activity compared with the model group (mechanical pain threshold): significant analgesic activity
[2]; single dose, 6 h post-dose, 3 mg/kg s.c. (high dose)
  analgesic activity compared with the model group (mechanical pain threshold): significant analgesic activity
[2]; single dose, 8 h post-dose, 1 mg/kg s.c. (low dose)
  analgesic activity compared with the model group (mechanical pain threshold): no significant effect
[2]; single dose, 8 h post-dose, 2 mg/kg s.c. (AJ003; AJ003-36 medium dose)
  analgesic activity compared with the model group (mechanical pain threshold): significant analgesic activity
[2]; single dose, 8 h post-dose, 3 mg/kg s.c. (high dose)
  analgesic activity compared with the model group (mechanical pain threshold): significant analgesic activity
[3]; Day 1 of dosing, 2 h and 4 h, 0.5 mg/kg s.c. (low dose)
  analgesic activity compared with the model group (mechanical pain threshold): significant analgesic activity
[3]; Day 1 of dosing, 2 h and 4 h, 1 mg/kg s.c. (AJ003; AJ003-36 medium dose)
  analgesic activity compared with the model group (mechanical pain threshold): significant analgesic activity
[3]; Day 1 of dosing, 2 h and 4 h, 2 mg/kg s.c. (high dose)
  analgesic activity compared with the model group (mechanical pain threshold): significant analgesic activity
[3]; Day 1 of dosing, 6 h, 0.5 mg/kg s.c. (low dose)
  analgesic activity compared with the model group (mechanical pain threshold): significant analgesic activity
[3]; Day 1 of dosing, 6 h, 1 mg/kg s.c. (AJ003; AJ003-36 medium dose)
  analgesic activity compared with the model group (mechanical pain threshold): significant analgesic activity
[3]; Day 1 of dosing, 6 h, 2 mg/kg s.c. (high dose)
  analgesic activity compared with the model group (mechanical pain threshold): significant analgesic activity
[3]; Day 1 of dosing, 8 h, 0.5 mg/kg s.c. (low dose)
  analgesic activity compared with the model group (mechanical pain threshold): not significantly different
[3]; Day 1 of dosing, 8 h, 1 mg/kg s.c. (AJ003; AJ003-36 medium dose)
  analgesic activity compared with the model group (mechanical pain threshold): significant analgesic activity
[3]; Day 1 of dosing, 8 h, 2 mg/kg s.c. (high dose)
  analgesic activity compared with the model group (mechanical pain threshold): significant analgesic activity
[3]; Day 4 of dosing, 2 h and 4 h, 0.5 mg/kg s.c. (low dose)
  analgesic activity compared with the model group (mechanical pain threshold): significant analgesic activity
[3]; Day 4 of dosing, 2 h and 4 h, 1 mg/kg s.c. (AJ003; AJ003-36 medium dose)
  analgesic activity compared with the model group (mechanical pain threshold): significant analgesic activity
[3]; Day 4 of dosing, 2 h and 4 h, 2 mg/kg s.c. (high dose)
  analgesic activity compared with the model group (mechanical pain threshold): significant analgesic activity
[3]; Day 4 of dosing, 6 h and 8 h, 0.5 mg/kg s.c. (low dose)
  analgesic activity compared with the model group (mechanical pain threshold): no longer significant
[3]; Day 4 of dosing, 6 h and 8 h, 1 mg/kg s.c. (AJ003; AJ003-36 medium dose)
  analgesic activity compared with the model group (mechanical pain threshold): remained significant
[3]; Day 4 of dosing, 6 h and 8 h, 2 mg/kg s.c. (high dose)
  analgesic activity compared with the model group (mechanical pain threshold): remained significant
[3]; Day 7 of dosing, 2 h and 4 h, 0.5 mg/kg s.c. (low dose)
  analgesic activity compared with the model group (mechanical pain threshold): significant analgesic activity
[3]; Day 7 of dosing, 2 h and 4 h, 1 mg/kg s.c. (AJ003; AJ003-36 medium dose)
  analgesic activity compared with the model group (mechanical pain threshold): significant analgesic activity
[3]; Day 7 of dosing, 2 h and 4 h, 2 mg/kg s.c. (high dose)
  analgesic activity compared with the model group (mechanical pain threshold): significant analgesic activity
[3]; Day 7 of dosing, 6 h, 0.5 mg/kg s.c. (low dose)
  analgesic activity compared with the model group (mechanical pain threshold): still significant
[3]; Day 7 of dosing, 6 h, 1 mg/kg s.c. (AJ003; AJ003-36 medium dose)
  analgesic activity compared with the model group (mechanical pain threshold): still significant
[3]; Day 7 of dosing, 6 h, 2 mg/kg s.c. (high dose)
  analgesic activity compared with the model group (mechanical pain threshold): still significant
[3]; Day 7 of dosing, 8 h, 0.5 mg/kg s.c. (low dose)
  analgesic activity compared with the model group (mechanical pain threshold): not significant
[3]; Day 7 of dosing, 8 h, 1 mg/kg s.c. (AJ003; AJ003-36 medium dose)
  analgesic activity compared with the model group (mechanical pain threshold): remained significant
[3]; Day 7 of dosing, 8 h, 2 mg/kg s.c. (high dose)
  analgesic activity compared with the model group (mechanical pain threshold): remained significant
[3]; Day 10 of dosing, 2 h and 4 h, 0.5 mg/kg s.c. (low dose)
  analgesic activity compared with the model group (mechanical pain threshold): significant analgesic activity
[3]; Day 10 of dosing, 2 h and 4 h, 1 mg/kg s.c. (AJ003; AJ003-36 medium dose)
  analgesic activity compared with the model group (mechanical pain threshold): significant analgesic activity
[3]; Day 10 of dosing, 2 h and 4 h, 2 mg/kg s.c. (high dose)
  analgesic activity compared with the model group (mechanical pain threshold): significant analgesic activity
[3]; Day 10 of dosing, 6 h, 0.5 mg/kg s.c. (low dose)
  analgesic activity compared with the model group (mechanical pain threshold): remained significant
[3]; Day 10 of dosing, 6 h, 1 mg/kg s.c. (AJ003; AJ003-36 medium dose)
  analgesic activity compared with the model group (mechanical pain threshold): remained significant
[3]; Day 10 of dosing, 6 h, 2 mg/kg s.c. (high dose)
  analgesic activity compared with the model group (mechanical pain threshold): remained significant
[3]; Day 10 of dosing, 8 h, 0.5 mg/kg s.c. (low dose)
  analgesic activity compared with the model group (mechanical pain threshold): not significant
[3]; Day 10 of dosing, 8 h, 1 mg/kg s.c. (AJ003; AJ003-36 medium dose)
  analgesic activity compared with the model group (mechanical pain threshold): remained significant
[3]; Day 10 of dosing, 8 h, 2 mg/kg s.c. (high dose)
  analgesic activity compared with the model group (mechanical pain threshold): remained significant
[3]; Day 14 of dosing, 2 h and 4 h, 0.5 mg/kg s.c. (low dose)
  analgesic activity compared with the model group (mechanical pain threshold): significant analgesic activity
[3]; Day 14 of dosing, 2 h and 4 h, 1 mg/kg s.c. (AJ003; AJ003-36 medium dose)
  analgesic activity compared with the model group (mechanical pain threshold): significant analgesic activity
[3]; Day 14 of dosing, 2 h and 4 h, 2 mg/kg s.c. (high dose)
  analgesic activity compared with the model group (mechanical pain threshold): significant analgesic activity
[3]; Day 14 of dosing, 6 h, 0.5 mg/kg s.c. (low dose)
  analgesic activity compared with the model group (mechanical pain threshold): remained significant
[3]; Day 14 of dosing, 6 h, 1 mg/kg s.c. (AJ003; AJ003-36 medium dose)
  analgesic activity compared with the model group (mechanical pain threshold): remained significant
[3]; Day 14 of dosing, 6 h, 2 mg/kg s.c. (high dose)
  analgesic activity compared with the model group (mechanical pain threshold): remained significant
[3]; Day 14 of dosing, 8 h, 0.5 mg/kg s.c. (low dose)
  analgesic activity compared with the model group (mechanical pain threshold): not significant
[3]; Day 14 of dosing, 8 h, 1 mg/kg s.c. (AJ003; AJ003-36 medium dose)
  analgesic activity compared with the model group (mechanical pain threshold): remained significant
[3]; Day 14 of dosing, 8 h, 2 mg/kg s.c. (high dose)
  analgesic activity compared with the model group (mechanical pain threshold): remained significant
